Test results published in patent publication US20140248292A1, “COMPOSITIONS AND METHODS FOR TREATING CANCER” (priority 2013, published 2014).

Tests used:
[1] = test system: 2774 ovarian peritoneal carcinomatosis; assay: 2774 ovarian peritoneal carcinomatosis mouse model; type: in vivo; conditions: 2774 model; treatment initiated on day 2
Text: The therapeutic potential of intraperitoneal administration of MOC31PE was then investigated in two experimental mouse models based on the ovarian cancer cell lines B76 (FIG. 15) and 2774 (FIG. 16). The animals were divided into three groups. Day 1 the animals were intraperitoneal injected with B76 cancer cell to mimic the situation in patients after cytoreductive surgery, were non-visible cancer cells are still left. MOC31PE treatment was initiated the day after (Day 2) or on day 8, as indicated by giving either MOC31PE 50 μg/kg intraperitoneal injection (i.p.) or 32 μg/kg intravenous injection (i.v.). […] Disease progression, as increase of abdominal size and other signs of symptoms, were measured twice weekly. Body weight was recorded throughout the experiments. Survival as a function of treatment was analysed by Kaplan-Meier plots.

PMCA-1 model = assay: In vivo tumor growth, orthotopic PMCA-1 model, single i.p. injection; conditions: 5 mg/kg vs 2.5 mg/kg i.p.
PMP-2 model = assay: In vivo tumor growth, orthotopic PMP-2 model, single injection
PMP-1 model = assay: In vivo tumor growth, orthotopic PMP-1 model, single i.p. injection; conditions: both tested doses (2.5 and 5 mg/kg i.p.)
[2] = test system: mucinous tumor tissue (PMP-2, PMCA-2, PMP-3, PMP-6); assay: Ex vivo PARP cleavage, Western immunoblot; type: cell-based, human; conditions: 24 h, PMP-2 xenograft tissue and both patient samples
Method: The mucinous cell suspension was seeded in 48-well plates (500 μl/well). […] Thereafter, the cells were lysed by using an SDS boiling method as described previously (Andersson2009). In brief, cell pellets were resuspended in lysis buffer (2% SDS, 1 mM Na3VO4, and 10 mM Tris-Cl (pH 7.6)), which was held at 100° C. when added, and the lysates were boiled for 5 min. After six passages through a 20G syringe on ice, the lysates were cleared by centrifugation. Protein concentrations were then determined using the BCA (bicinchoninic acid) protein assay (Pierce, Rockford, Ill.). The lysates were snap frozen in liquid N2 and kept at −70° C. A portion (15 μg) of each protein lysate was fractionated by 4-12% NuPAGE Bis-Tris gel electrophoresis (Invitrogen, Carlsbad, Calif.), and subsequently transferred by electroblotting to Immobilon membranes (Millipore, Bedford, Mass.). The filters were probed with an anti-PARP antibody (Roche Diagnostics, Mannheim, Germany), anti-EpCAM (MOC31, IQ Corporation, Groningen, the Netherlands) or with anti-alpha tubulin (Calbiochem, La Jolla, Calif.). Immune complexes were detected with an appropriate HRP-coupled secondary antibody. Peroxidase activity was visualized with […] (Amersham Pharmacia Biotech, Buckinghamshire, UK). The western blots were probed with anti-α-tubulin antibody to confirm equal loading and transfer of samples.

[3] = test system: orthotopic models of mucinous peritoneal surface malignancies; assay: In vivo tumor growth, orthotopic models of mucinous peritoneal surface malignancies (model not singled out); conditions: all models; 10 mg/kg i.p.

CC(=O)O[C@H]1C(=O)[C@@]2(C)[C@H]([C@H](OC(=O)c3ccccc3)[C@]3(O)C[C@H](OC(=O)[C@H](O)[C@@H](NC(=O)c4ccccc4)c4ccccc4)C(C)=C1C3(C)C)[C@]1(OC(C)=O)CO[C@@H]1C[C@@H]2O [Ptx, Paclitaxel]
survival / disease progression, combinatorial treatment experiment [1]: significant effect on disease progression

CO[C@@]12[C@H](COC(N)=O)C3=C(C(=O)C(C)=C(N)C3=O)N1C[C@@H]1N[C@@H]12 [Mitomycin C, mitomycin C]
efficacy, comparison of doses (PMCA-1 model): 5 mg/kg was more efficacious than 2.5 mg/kg | inhibition of tumor growth (PMP-2 model; all tested doses, single i.p.): substantial inhibition of tumor growth | tumor growth within the observation period (PMP-2 model; both tested doses (2.5 and 5 mg/kg i.p.)): almost completely inhibited tumor growth | tumor growth within the observation period (PMP-1 model): almost completely inhibited tumor growth

pseudomonas exotoxin A [PE toxin]
PARP cleavage / PARP inactivation (Western immunoblot) [2]: No PARP inactivation was evident

O=C1[O][Pt]2([NH][C@@H]3CCCC[C@H]3[NH]2)[O]C1=O [Oxaliplatin, oxaliplatin]
growth inhibition (growth indices) compared to vehicle-treated animals [3]: only slight reduction of growth indices
